Source: publication PMC5540273, “Progress towards a public chemogenomic set for protein kinases and a call for contributions” (PLoS ONE, 2017)

Legend:
Experiment in all cases: KINOMEscan competition binding
[1] = molecular target: DDR1 (Homo sapiens, UniProt Q08345); conditions: read-out: %Inh DDR1
[2] = molecular target: ERK2 (Homo sapiens, UniProt P28482); conditions: read-out: %Inh ERK2
[3] = molecular target: T1, FLT3-autoinhibited (Homo sapiens, UniProt P36888); conditions: read-out: %Inh FLT3-autoinhibited
T1 sequence (P36888 27-993): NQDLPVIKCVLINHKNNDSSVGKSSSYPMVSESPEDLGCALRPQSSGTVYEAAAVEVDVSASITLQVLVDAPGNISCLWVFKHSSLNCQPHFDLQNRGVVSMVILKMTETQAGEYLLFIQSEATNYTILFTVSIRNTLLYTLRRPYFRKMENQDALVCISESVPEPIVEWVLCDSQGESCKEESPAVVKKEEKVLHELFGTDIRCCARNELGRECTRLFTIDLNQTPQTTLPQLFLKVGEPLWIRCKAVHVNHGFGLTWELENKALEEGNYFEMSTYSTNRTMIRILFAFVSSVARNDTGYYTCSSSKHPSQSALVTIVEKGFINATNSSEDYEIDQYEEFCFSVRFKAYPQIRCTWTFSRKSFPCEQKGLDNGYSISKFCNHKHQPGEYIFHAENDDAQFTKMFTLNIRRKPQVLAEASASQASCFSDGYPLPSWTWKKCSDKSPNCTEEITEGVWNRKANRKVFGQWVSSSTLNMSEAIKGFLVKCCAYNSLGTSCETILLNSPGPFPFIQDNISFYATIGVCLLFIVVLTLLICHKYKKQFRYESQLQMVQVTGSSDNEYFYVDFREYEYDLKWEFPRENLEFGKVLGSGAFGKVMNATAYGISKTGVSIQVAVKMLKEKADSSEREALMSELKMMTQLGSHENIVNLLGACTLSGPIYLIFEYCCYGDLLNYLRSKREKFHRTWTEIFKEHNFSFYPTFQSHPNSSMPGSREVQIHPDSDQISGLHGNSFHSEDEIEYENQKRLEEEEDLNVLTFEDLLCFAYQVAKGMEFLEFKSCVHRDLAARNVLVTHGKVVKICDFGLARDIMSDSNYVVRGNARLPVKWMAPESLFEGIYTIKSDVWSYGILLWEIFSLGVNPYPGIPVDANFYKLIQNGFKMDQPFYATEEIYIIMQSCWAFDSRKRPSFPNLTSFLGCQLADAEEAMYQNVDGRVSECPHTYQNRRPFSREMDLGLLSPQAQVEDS

[4] = molecular target: BUB1 (Homo sapiens, UniProt O43683); conditions: read-out: %Inh BUB1
BUB1, sequence (O43683 whole entry): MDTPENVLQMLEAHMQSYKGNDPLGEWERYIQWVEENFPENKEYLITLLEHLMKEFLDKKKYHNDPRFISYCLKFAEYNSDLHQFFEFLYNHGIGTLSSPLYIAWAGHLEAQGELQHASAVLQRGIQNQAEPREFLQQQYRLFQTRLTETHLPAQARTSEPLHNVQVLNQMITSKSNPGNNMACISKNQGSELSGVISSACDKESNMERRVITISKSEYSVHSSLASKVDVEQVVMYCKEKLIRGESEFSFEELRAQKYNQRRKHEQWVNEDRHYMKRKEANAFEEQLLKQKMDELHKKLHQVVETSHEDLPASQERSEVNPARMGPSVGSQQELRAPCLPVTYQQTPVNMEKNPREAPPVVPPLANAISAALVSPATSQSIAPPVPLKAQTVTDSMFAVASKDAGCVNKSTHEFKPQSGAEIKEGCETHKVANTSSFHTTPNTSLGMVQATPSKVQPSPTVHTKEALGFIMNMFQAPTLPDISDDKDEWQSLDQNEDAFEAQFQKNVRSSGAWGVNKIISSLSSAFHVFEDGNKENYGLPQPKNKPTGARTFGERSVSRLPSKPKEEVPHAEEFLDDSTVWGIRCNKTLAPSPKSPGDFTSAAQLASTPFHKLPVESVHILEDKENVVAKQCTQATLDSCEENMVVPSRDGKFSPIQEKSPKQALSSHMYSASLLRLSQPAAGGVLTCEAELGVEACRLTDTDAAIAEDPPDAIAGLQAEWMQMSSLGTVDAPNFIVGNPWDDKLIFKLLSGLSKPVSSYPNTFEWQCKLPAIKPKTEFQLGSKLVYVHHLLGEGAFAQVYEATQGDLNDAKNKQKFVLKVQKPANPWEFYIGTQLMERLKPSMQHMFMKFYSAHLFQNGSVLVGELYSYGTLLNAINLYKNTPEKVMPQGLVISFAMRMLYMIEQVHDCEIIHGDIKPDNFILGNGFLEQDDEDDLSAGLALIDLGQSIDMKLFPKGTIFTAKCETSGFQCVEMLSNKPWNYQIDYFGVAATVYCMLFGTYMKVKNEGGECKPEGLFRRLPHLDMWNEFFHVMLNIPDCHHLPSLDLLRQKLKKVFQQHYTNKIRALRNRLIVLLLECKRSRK

[5] = molecular target: JAK1(JH1domain-catalytic) (Homo sapiens, UniProt P23458); conditions: read-out: %Inh JAK1(JH1domain-catalytic)
JAK1(JH1domain-catalytic), sequence (P23458 854-1154 limits assumed): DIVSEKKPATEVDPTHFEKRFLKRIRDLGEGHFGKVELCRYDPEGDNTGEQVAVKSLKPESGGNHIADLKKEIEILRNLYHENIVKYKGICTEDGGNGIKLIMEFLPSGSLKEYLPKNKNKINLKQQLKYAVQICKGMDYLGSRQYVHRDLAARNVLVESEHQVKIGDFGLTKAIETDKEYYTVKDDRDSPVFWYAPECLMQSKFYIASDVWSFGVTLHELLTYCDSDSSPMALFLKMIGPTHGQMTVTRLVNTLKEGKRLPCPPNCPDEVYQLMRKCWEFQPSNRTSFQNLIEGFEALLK

[6] = molecular target: T2, ITK (Homo sapiens, UniProt Q08881); conditions: read-out: %Inh ITK
T2 sequence (Q08881 1-620): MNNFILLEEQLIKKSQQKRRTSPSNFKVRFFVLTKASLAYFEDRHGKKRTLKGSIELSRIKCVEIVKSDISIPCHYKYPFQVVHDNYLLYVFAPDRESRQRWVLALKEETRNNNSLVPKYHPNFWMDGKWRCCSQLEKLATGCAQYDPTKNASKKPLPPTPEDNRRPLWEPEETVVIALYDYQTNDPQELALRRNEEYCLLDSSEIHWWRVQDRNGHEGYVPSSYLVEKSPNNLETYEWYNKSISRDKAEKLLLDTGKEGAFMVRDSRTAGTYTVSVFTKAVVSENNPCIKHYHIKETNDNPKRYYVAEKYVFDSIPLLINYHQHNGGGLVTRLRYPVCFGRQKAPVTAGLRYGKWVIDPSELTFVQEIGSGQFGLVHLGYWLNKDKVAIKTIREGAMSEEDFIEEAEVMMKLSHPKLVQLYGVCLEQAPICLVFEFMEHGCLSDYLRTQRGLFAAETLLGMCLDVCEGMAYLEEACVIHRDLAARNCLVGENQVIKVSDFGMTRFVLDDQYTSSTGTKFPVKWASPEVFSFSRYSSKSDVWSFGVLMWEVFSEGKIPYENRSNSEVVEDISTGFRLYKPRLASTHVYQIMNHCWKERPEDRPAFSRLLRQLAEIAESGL

[7] = molecular target: IRAK1 (Homo sapiens, UniProt P51617); conditions: read-out: %Inh IRAK1
IRAK1, sequence (P51617 whole entry): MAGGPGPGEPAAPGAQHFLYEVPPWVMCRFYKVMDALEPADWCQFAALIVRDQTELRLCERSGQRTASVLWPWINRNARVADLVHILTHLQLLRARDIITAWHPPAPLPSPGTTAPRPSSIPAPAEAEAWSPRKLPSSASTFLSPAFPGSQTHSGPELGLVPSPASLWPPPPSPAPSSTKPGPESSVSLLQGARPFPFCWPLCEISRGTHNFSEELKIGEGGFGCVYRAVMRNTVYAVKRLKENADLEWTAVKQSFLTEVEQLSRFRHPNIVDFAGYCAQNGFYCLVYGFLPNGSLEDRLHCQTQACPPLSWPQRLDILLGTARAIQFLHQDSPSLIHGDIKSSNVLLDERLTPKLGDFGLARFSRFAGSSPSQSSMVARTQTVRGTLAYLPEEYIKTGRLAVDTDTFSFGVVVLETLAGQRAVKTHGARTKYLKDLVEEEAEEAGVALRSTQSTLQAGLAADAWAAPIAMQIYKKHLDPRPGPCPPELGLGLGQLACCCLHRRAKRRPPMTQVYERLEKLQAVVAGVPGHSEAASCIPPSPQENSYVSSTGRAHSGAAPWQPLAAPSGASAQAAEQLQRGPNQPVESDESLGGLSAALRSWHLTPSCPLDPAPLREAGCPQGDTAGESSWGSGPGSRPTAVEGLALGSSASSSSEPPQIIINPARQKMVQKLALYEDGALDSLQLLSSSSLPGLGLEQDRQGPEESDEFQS

[8] = molecular target: KIT-autoinhibited (Homo sapiens, UniProt P10721); conditions: read-out: %Inh KIT-autoinhibited
KIT-autoinhibited, sequence (P10721 546-976 limits assumed): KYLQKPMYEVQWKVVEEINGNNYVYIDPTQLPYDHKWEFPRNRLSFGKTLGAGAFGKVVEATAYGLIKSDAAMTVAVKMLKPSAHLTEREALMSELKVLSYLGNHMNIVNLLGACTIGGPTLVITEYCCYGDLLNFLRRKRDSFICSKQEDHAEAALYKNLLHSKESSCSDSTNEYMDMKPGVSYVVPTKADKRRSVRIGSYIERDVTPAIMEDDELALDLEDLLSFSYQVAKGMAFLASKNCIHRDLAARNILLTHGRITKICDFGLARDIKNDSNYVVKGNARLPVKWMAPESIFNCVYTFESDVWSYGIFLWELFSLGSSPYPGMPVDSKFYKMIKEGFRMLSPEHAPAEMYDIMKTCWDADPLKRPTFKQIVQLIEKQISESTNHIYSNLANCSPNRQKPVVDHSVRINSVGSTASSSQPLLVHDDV

[9] = molecular target: T3, DYRK2 (Homo sapiens, UniProt Q92630); conditions: read-out: %Inh DYRK2
T3 sequence (Q92630 1-601): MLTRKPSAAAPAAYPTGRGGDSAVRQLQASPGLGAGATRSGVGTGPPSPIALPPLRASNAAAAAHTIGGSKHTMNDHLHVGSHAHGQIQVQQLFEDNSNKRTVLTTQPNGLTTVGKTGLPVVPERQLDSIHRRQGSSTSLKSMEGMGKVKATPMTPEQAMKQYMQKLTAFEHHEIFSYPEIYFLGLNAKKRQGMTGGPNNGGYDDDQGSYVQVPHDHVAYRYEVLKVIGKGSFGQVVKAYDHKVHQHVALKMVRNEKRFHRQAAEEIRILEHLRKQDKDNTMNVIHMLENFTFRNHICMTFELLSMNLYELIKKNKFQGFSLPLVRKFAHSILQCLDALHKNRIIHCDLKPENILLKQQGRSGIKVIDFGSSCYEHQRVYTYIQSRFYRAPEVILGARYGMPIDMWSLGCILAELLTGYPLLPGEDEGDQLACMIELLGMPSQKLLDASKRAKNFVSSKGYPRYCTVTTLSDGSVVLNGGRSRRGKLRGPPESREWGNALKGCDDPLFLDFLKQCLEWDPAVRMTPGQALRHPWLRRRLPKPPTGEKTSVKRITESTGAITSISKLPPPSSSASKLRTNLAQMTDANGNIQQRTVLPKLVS

[10] = molecular target: CSNK2A1 (Homo sapiens, UniProt P68400); conditions: read-out: %Inh CSNK2A1
CSNK2A1, sequence (P68400 whole entry): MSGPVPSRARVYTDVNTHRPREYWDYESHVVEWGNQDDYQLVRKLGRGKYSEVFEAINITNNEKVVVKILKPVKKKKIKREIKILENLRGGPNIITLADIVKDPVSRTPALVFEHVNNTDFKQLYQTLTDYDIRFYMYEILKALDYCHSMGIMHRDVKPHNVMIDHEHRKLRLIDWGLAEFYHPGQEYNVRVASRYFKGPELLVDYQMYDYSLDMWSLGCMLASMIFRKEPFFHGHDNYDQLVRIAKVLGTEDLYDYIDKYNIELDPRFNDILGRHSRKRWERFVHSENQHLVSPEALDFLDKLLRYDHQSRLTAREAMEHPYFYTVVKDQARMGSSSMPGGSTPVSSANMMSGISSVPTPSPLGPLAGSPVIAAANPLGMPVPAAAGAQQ

DDR1, sequence (Q08345 19-913): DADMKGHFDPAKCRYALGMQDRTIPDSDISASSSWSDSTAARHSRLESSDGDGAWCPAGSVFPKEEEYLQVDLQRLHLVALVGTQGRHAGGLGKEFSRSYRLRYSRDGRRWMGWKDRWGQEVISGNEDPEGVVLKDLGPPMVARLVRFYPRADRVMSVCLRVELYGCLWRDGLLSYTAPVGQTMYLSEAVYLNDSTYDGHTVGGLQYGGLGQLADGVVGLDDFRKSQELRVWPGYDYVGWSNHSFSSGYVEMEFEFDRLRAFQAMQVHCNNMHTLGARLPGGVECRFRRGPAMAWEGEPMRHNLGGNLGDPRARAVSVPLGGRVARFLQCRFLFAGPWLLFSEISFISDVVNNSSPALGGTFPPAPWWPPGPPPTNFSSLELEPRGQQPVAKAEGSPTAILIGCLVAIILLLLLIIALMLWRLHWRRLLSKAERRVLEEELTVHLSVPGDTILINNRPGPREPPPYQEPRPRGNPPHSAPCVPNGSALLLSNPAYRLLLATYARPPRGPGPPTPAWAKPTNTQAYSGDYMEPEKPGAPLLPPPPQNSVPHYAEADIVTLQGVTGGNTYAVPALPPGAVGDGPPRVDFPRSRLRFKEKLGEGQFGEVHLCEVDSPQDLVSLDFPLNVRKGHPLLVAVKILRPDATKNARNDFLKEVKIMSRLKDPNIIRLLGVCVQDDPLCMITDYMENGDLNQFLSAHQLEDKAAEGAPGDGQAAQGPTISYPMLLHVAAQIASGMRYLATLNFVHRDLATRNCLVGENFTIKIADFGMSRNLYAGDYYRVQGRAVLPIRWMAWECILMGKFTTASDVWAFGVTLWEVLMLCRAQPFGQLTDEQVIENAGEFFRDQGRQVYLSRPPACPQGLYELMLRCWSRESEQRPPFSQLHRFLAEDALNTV
ERK2, sequence (P28482 whole entry): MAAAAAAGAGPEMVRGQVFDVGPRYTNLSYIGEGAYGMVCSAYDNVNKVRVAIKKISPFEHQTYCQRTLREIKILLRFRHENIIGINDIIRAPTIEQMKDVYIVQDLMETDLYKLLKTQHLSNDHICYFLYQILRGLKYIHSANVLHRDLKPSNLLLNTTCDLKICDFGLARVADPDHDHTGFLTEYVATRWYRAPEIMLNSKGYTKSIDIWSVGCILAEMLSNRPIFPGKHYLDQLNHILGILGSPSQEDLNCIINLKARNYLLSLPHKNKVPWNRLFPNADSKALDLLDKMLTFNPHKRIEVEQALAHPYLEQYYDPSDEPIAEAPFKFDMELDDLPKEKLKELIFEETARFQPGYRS

Structure (SMILES): Cn1cc(-c2cnc(N)c3c(-c4ccc5c(c4)CCN5C(=O)Cc4ccccc4)csc23)cn1 [UNC10225012A]
- inhibition at 1 µM [1]: 97.7%
- inhibition at 1 µM [2]: 0%
- inhibition at 1 µM [3]: 0%
- inhibition at 1 µM [4]: 0%
- inhibition at 1 µM [5]: 0%
- inhibition at 1 µM [6]: 23%
- inhibition at 1 µM [7]: 0%
- inhibition at 1 µM [8]: 32%
- inhibition at 1 µM [9]: 8%
- inhibition at 1 µM [10]: 0%

Structure (SMILES): CS(=O)(=O)Cc1ccc(Nc2nccc(-c3c(-c4cccc(NC(=O)C5CCCCC5)c4)nn4ncccc34)n2)cc1 [UNC10225159A]
- inhibition at 1 µM [1]: 96.6%
- inhibition at 1 µM [2]: 0%
- inhibition at 1 µM [3]: 25%
- inhibition at 1 µM [4]: 98.7%
- inhibition at 1 µM [5]: 0%
- inhibition at 1 µM [6]: 6%
- inhibition at 1 µM [7]: 24%
- inhibition at 1 µM [8]: 14%
- inhibition at 1 µM [9]: 5%
- inhibition at 1 µM [10]: 17%

Structure (SMILES): Cc1ccc(NC(=O)Nc2cccc(C(F)(F)F)c2)cc1 [UNC10225187A]
- inhibition at 1 µM [1]: 43%
- inhibition at 1 µM [2]: 0%
- inhibition at 1 µM [3]: 0%
- inhibition at 1 µM [4]: 0%
- inhibition at 1 µM [5]: 0%
- inhibition at 1 µM [6]: 12%
- inhibition at 1 µM [7]: 0%
- inhibition at 1 µM [8]: 3%
- inhibition at 1 µM [9]: 0%
- inhibition at 1 µM [10]: 1%

Structure (SMILES): COc1cccc(OC)c1C(=O)Nc1cccc(-c2nn3ccccc3c2-c2ccnc(Nc3cccc(F)c3)n2)c1 [UNC10225310A]
- inhibition at 1 µM [1]: 99.3%
- inhibition at 1 µM [2]: 6%
- inhibition at 1 µM [3]: 0%
- inhibition at 1 µM [4]: 11%
- inhibition at 1 µM [5]: 0%
- inhibition at 1 µM [6]: 93.8%
- inhibition at 1 µM [7]: 0%
- inhibition at 1 µM [8]: 11%
- inhibition at 1 µM [9]: 0%
- inhibition at 1 µM [10]: 0%

Structure (SMILES): O=c1cc(N2CCOCC2)nc2n(Cc3cccc(Cl)c3Cl)c(C3CC3)nn12 [UNC10225469A]
- inhibition at 1 µM [1]: 21%
- inhibition at 1 µM [2]: 11%
- inhibition at 1 µM [3]: 0%
- inhibition at 1 µM [4]: 0%
- inhibition at 1 µM [5]: 9%
- inhibition at 1 µM [6]: 4%
- inhibition at 1 µM [7]: 0%
- inhibition at 1 µM [8]: 15%
- inhibition at 1 µM [9]: 1%
- inhibition at 1 µM [10]: 16%
